From patent publication US20230150970A1, “AMINOPYRIMIDINE DERIVATIVES AND THEIR USE AS ARYL HYDROCARBON RECEPTOR MODULATORS” (DONG-A ST CO., LTD., priority 2020, published 2023)
pEC50, pIC50: −log10 of the molar value. Read-outs that look alike come from different tables or passages of the source.

Tests used:
AhR [1] = biological target: T1, AhR (Homo sapiens, UniProt P35869)
T1 sequence (P35869 11-848): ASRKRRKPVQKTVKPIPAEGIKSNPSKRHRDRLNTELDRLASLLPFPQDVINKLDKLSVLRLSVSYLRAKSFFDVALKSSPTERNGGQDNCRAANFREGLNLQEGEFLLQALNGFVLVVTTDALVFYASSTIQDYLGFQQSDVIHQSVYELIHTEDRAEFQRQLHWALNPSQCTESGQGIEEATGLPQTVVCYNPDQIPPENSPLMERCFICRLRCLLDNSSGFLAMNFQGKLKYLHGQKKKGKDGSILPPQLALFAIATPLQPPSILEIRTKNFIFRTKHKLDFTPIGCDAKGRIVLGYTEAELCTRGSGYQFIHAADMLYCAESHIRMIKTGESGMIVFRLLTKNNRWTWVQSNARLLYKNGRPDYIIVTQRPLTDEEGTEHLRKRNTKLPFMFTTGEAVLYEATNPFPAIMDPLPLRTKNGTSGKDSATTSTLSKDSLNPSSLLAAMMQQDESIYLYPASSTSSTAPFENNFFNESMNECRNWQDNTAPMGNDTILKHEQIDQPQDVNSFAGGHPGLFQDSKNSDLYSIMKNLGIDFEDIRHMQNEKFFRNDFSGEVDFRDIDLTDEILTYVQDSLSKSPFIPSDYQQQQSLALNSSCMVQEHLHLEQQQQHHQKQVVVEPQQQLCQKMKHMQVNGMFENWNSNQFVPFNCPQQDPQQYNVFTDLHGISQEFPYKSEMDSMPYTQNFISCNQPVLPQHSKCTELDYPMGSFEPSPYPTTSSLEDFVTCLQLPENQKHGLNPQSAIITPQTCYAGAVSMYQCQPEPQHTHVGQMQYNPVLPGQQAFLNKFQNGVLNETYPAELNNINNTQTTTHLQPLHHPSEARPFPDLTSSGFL
Excerpt: (§1) In Vitro XRE-Luciferase Reporter Assay (In Vitro Assay 1, 2, 3) AhR activation leads the induction of target gene expression such as CYP1A1 and CYPIB1 by AhR binding to AhR-responsive DNA elements also known as xenobiotics responsive elements (XREs). The assay for measuring AhR activity herein is the luciferase assay using cell lines transfected with luciferase reporter plasmid containing XREs at the upstream of the reporter gene. Cells transfected with XRE-luciferase reporter (XRE-Luc), plasmid drive luciferase activity reflecting activation and inhibition of AhR in the cells. […] Kynurenine (an endogenous AhR agonist), was used to stimulate cells to test antagonistic properties of the compounds. The half-maximal inhibitory concentration (IC50), or half-maximal effective concentration (EC50), value was calculated using nonlinear regression (four parameters), with Prism8.0 software (GraphPad).
(§2) In Vitro Assay 1: Antagonism in Human Cell Line
(§3) HepG2 (human hepatoma cell line) cell line with a XRE-luciferase reporter either transiently or stably (Invivogen) were plated in complete medium and incubated at 37° C. in a CO2 incubator. After 24 hours, cells were treated with kynurenine (50* or 200 μM) alone (negative control) or with test compounds for 6 hours. Luciferase activity was measured with a commercial kit such as the Promega Luciferase kit or Invivogen Luciferase kit. Relative luciferase activity (Firefly/Nano-Luc) was used to calculate IC50 values. […] (IC50 values are grouped as A, B, C and D, whereby A: IC50<0.01 μM; B: 0.01<IC50<0.1 μM; C: 0.1<IC50<1.0 μM; D: IC50>1.0 μM)

AhR [2] = biological target: T1, AhR; assay: In Vitro Assay 3: XRE-luciferase reporter assay, agonism in human cell line (HepG2); format: cell-based; set-up: endogenous in cells; host or cells: HepG2; conditions: HepG2, tryptophan free medium, 6 hours, no agonist, read-out: Assay 3: AhR-Luc Human Agonism (EC50)
Method: In Vitro Assay 3: Agonism in Human Cell Line
HepG2 (human hepatoma cell line) cells co-transfected with XRE-Luc and Nano-Luc plasmids were plated in tryptophan free medium containing 1% of dialyzed fetal bovine serum and incubated overnight at 37° C. in a CO2 incubator. After 24 hours, cells were treated for 6 hours with test compounds or not. […] As a positive control, cells were incubated with TCDD.

AhR [3] = biological target: T2, AhR (Mus musculus, UniProt P30561); assay: In Vitro Assay 2: XRE-luciferase reporter assay, antagonism in mouse cell line (Hepa1c1c7); format: cell-based; conditions: 6 hours, read-out: Assay 2: AhR-Luc Mouse Antagonism (IC50)
T2 sequence (P30561 1-848): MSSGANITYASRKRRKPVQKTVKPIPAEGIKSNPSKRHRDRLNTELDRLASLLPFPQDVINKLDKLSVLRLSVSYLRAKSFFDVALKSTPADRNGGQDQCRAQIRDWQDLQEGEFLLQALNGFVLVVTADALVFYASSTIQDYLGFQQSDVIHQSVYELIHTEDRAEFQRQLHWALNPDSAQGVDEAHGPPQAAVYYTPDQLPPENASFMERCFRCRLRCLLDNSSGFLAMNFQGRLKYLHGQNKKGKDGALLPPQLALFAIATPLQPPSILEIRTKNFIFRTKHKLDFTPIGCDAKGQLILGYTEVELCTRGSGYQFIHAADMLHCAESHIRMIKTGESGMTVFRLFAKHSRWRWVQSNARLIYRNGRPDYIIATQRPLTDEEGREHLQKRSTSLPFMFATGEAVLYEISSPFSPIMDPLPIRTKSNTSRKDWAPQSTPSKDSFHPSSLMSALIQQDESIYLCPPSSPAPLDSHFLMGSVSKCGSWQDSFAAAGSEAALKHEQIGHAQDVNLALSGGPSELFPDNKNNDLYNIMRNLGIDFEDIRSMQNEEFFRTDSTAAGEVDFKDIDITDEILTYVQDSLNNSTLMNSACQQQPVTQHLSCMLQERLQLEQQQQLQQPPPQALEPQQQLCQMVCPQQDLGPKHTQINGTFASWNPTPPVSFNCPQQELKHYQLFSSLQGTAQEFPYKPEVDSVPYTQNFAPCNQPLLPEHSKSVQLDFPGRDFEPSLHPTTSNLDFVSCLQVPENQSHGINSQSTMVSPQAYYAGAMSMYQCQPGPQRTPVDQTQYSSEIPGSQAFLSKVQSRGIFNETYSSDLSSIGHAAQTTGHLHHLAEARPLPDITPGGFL
Method: In Vitro Assay 2: Antagonism in Mouse Cell Line
Hepa1c1c7 (murine liver cancer cell line) cells co-transfected with XRE-Luc and Nano-Luc plasmids were plated in complete medium and incubated overnight at 37° C. in a CO2 incubator. Following incubation, cells were treated with AhR activating ligands such as kynurenic acid, kynurenine (#) with or without test compounds for 6 hours.

AhR [4] = biological target: T1, AhR; assay: In Vitro Assay 4: endogenous AhR activity assay (CYP1A1 and CYP1B1 mRNA, qRT-PCR, HepG2 cells)
AhR [5] = biological target: T1, AhR; assay: In Vitro Assay 1: XRE-luciferase reporter assay, antagonism in human cell line (HepG2); conditions: Assay 1: AhR-Luc Human Antagonism (IC50, nM), 6 hours
Excerpt: as §1, §2, §3

[6] = values marked #: AhR activating ligand kynurenine
[7] = HepG2, read-out: CYP1A1 (% Inhibition)
[8] = HepG2, read-out: CYP1B1 (% Inhibition)
[9] = unmarked values: kynurenine 200 μM

Row | pIC50 (AhR [1]) | Compound | pEC50 (AhR [2]; number of the cell) | pIC50 (AhR [3]; [6]) | inhibition at 0.123 µM (AhR [4]; [7]) | inhibition at 0.123 µM (AhR [4]; [8]) | IC50 (AhR [5]; values marked *: kynurenine 50 μM) | pEC50 (AhR [2]; class in brackets of the cell) | pIC50 (AhR [3]; unmarked values: AhR activating ligand kynurenic acid) | IC50 (AhR [5]; [9])
1 | 7.00 to 8.00 | 4-(4-chlorophenyl)-2-(pyridin-3-yl)-6-(4-(pyrimidin-2-yl)piperazin-1-yl)pyrimidine [Example 90] |  |  |  |  |  |  |  | 
2 |  | O[C@@H]1CN(c2cc(-c3ccc(Cl)cc3)nc(-c3cccnc3)n2)C[C@@H]1F [Example 235, (3R,4S)-1-(6-(4-chlorophenyl)-2-(pyridin-3-yl)pyrimidin-4-yl)-4-fluoropyrrolidin-3-ol] | 5.45 | 7.00 to 8.00 | 106% | 101% | < 10 nM |  |  | 
3 |  | O=S(=O)(CCO)N1CCN(c2cc(-c3ccc(Cl)cc3)nc(-c3cccnc3)n2)CC1 [Example 239, 2-((4-(6-(4-chlorophenyl)-2-(pyridin-3-yl)pyrimidin-4-yl)piperazin-1-yl)sulfonyl)ethan-1-ol] | < 4.52 |  | 108% | 101% |  | < 5.00 | > 8.00 | < 10 nM
4 |  | OCC1CCN(c2cc(-c3ccc(N4CCOCC4)cc3)nc(-c3cccnc3)n2)CC1 [Example 268, (1-(6-(4-morpholinophenyl)-2-(pyridin-3-yl)pyrimidin-4-yl)piperidin-4-yl)methanol] | < 4.52 | > 8.00 | 102% |  |  | < 5.00 |  | < 10 nM
5 |  | O[C@H]1CCN(c2cc(-c3ccc(Cl)cc3)nc(-c3cncc(F)c3)n2)C1 [Example 323, (S)-1-(6-(4-chlorophenyl)-2-(5-fluoropyridin-3-yl)pyrimidin-4-yl)pyrrolidin-3-ol] | < 4.52 | 7.00 to 8.00 | 108% | 99.8% |  | < 5.00 |  | < 10 nM
6 |  | O[C@H]1CCN(c2cc(-c3ccc(C(F)(F)F)cc3)nc(-c3cncc(F)c3)n2)C1 [Example 327, (S)-1-(2-(5-fluoropyridin-3-yl)-6-(4-(trifluoromethyl)phenyl)pyrimidin-4-yl)pyrrolidin-3-ol] | 5.76 | 7.00 to 8.00 | 106% | 101% |  |  |  | < 10 nM
7 |  | O=C(CCO)N1CCN(c2cc(-c3ccc(Cl)cc3)nc(-c3cccnc3)n2)CC1 [Example 352, 1-(4-(6-(4-chlorophenyl)-2-(pyridin-3-yl)pyrimidin-4-yl)piperazin-1-yl)-3-hydroxypropan-1-one] | < 4.52 | 7.00 to 8.00 | 87.2% |  |  | < 5.00 |  | < 10 nM
